In patent publication US10406218B2 (priority 2014, dated 2019):
Like-named read-outs stand apart in the source and are kept apart here.

Test system: PBMC from 30 HC individuals
Assay: ex vivo IFNγ ELISPOT with NTM-specific peptides
Type: cell-based, human
[1] = response frequency among HC donors, NTM-specific peptides (Table 2)
[2] = total spot forming cells, IFNγ ELISPOT, NTM-specific peptides (Table 2)

Row | Substance | Resp Freq [1] [%] | Total SFC [2] [SFC] | Resp Freq [%] | Total SFC [SFC]
1 | 537 (VEPVDISNAVLFLAS) [Peptide 537] | 3 | 43 |  | 
2 | ALLYIPLLTRMLMNL [Peptide 777] | 7 | 87 | 7 | 87
3 | 1571 (ADGLVLFNRFLQPDI) [Peptide 1571] | 3 | 48 |  | 
4 | RFTLLRPLLFTIAYE [Peptide 311] | 3 | 477 | 3 | 477
5 | 586 (ELVWLGAAMIIGAGS) [Peptide 586] | 3 | 37 |  | 
6 | 1001 (KGGLRFHPSVYLGIV) [Peptide 1001] | 3 | 37 |  | 
7 | GRLIGWLAKVLAEHP [Peptide 1258] | 3 | 60 | 3 | 60
8 | 804 (NSSIVLISLPAIFRG) [Peptide 804] | 3 | 57 |  | 
9 | PLAENYLRLNALGAY [Peptide 1364] | 3 | 228 | 3 | 228
10 | 387 (RGQFWIWAGANIAPI) [Peptide 387] | 3 | 47 |  | 
11 | YNVVIYPVTTLRLAM [Peptide 1556] | 3 | 122 | 3 | 122
12 | 281 (IVAHYILQYATEELR) [Peptide 281] | 3 | 25 |  | 
13 | 1072 (HIELALYRIAQECLQ) [Peptide 1072] | 3 | 37 |  | 
14 | 78 (IVGAALFLASDASSF) [Peptide 78] | 3 | 32 |  | 
15 | 1368 (TMMLSLVWPIASLGF) [Peptide 1368] | 3 | 40 |  | 
16 | 646 (ADAVNFGVAPAFIVY) [Peptide 646] | 3 | 37 |  | 
17 | 1218 (RTFFRYFPTKESVLF) [Peptide 1218] | 3 | 48 |  | 
18 | 697 (RSLMFPTLASLIEER) [Peptide 697] | 3 | 25 |  | 
19 | 658 (VRRVLPALMNQFISL) [Peptide 658] | 3 | 32 |  | 
20 | 405 (PLVYFIDSMLQVDDL) [Peptide 405] | 3 | 33 |  | 
21 | 1132 (FLFTMLQKTLKGNIF) [Peptide 1132] | 3 | 35 |  | 

Row | Substance | Resp Freq [1] [%] | Total SFC [2] [SFC] | Resp Freq [%] | Total SFC [SFC]
22 | 1542 (GRVAWNIVTSYLDSA) [Peptide 1542] | 3 | 52 |  | 
23 | 745 (VFALMGLRQLYFLLG) [Peptide 745] | 3 | 35 |  | 
24 | 1529 (EGIVFALGGALDFSY) [Peptide 1529] | 3 | 23 |  | 
25 | 871 (LVYLVGFKTKVSTLL) [Peptide 871] | 3 | 28 |  | 
26 | 47 (VEFFRAVPVLIMMIF) [Peptide 47] | 3 | 40 |  | 
27 | 1077 (GFVTEFLQREVQNFL) [Peptide 1077] | 3 | 22 |  | 
28 | 953 (FEHSVVNMFLFPSGL) [Peptide 953] | 3 | 25 |  | 
29 | DPLIFFRPRVERLFG [Peptide 720] | 10 | 125 | 10 | 125
30 | 898 (GQRVITLLASANRDE) [Peptide 898] | 3 | 23 |  | 
31 | 672 (ASGTLLFKLTPWIVV) [Peptide 672] | 3 | 25 |  | 
32 | 175 (LDYFLNLMLRAPFRL) [Peptide 175] | 3 | 32 |  | 
33 | 1452 (TTPHFLVEGAIIAAY) [Peptide 1452] | 3 | 43 |  | 
34 | 417 (GVVAAIIAYNYPNQL) [Peptide 417] | 3 | 28 |  | 
35 | 651 (FSWFAAGMVLAELTV) [Peptide 651] | 3 | 22 |  | 
36 | 937 (HLMQSVVMVSFPVEV) [Peptide 937] | 3 | 22 |  | 
37 | 447 (DDRRTLLWLANQRAV) [Peptide 447] | 3 | 53 |  | 
38 | 424 (AVPNFALTPLLIIWM) [Peptide 424] | 3 | 55 |  | 
39 | 626 (ARAGFAASGVLHLLV) [Peptide 626] | 3 | 48 |  | 
40 | 538 (VEVVSAEALQLPLWG) [Peptide 538] | 3 | 30 |  | 
41 | 963 (VLVVFLLPALRDGAP) [Peptide 963] | 3 | 25 |  | 
42 | 1004 (ARQMLRFLSSPLWRA) [Peptide 1004] | 3 | 27 |  | 

Row | Substance | Resp Freq [1] [%] | Total SFC [2] [SFC] | Resp Freq [%] | Total SFC [SFC]
43 | 713 (EGELHLFTPEVVFLL) [Peptide 713] | 3 | 30 |  | 
44 | 1134 (TLLTMLWQNLIGNAV) [Peptide 1134] | 3 | 47 |  | 
45 | KWETFLTQELPAYLA [Peptide 741] | 13 | 248 | 13 | 248
46 | 718 (LGPTAGLTVASALLV) [Peptide 718] | 3 | 28 |  | 
47 | 1525 (FFHRGLMLMSFDEHL) [Peptide 1525] | 3 | 25 |  | 
48 | 1255 (GNELWQIALLELWLQ) [Peptide 1255] | 3 | 37 |  | 
49 | 257 (FFHIYGMTVLLNAAL) [Peptide 257] | 3 | 35 |  | 
50 | KDVFFYEPIILPEKS [Peptide 752] | 3 | 78 | 3 | 78
51 | 400 (MKELLAENLMVMMRD) [Peptide 400] | 3 | 32 |  | 
52 | 787 (DVDIDQLRSFLADKV) [Peptide 787] | 3 | 38 |  | 
53 | RLFPVIRRYALAYHV [Peptide 582] | 10 | 158 | 10 | 158
54 | 714 (AFTHFALLANVAEDI) [Peptide 714] | 3 | 35 |  | 
55 | QWGYRMVLPQLILMP [Peptide 868] | 3 | 58 | 3 | 58
56 | 712 (VVLMIFRPQGLFPAR) [Peptide 712] | 3 | 27 |  | 
57 | 205 (TTSLAFLVAFRPGLV) [Peptide 205] | 3 | 45 |  | 
58 | 438 (GSVLLVQALLVTSLL) [Peptide 438] | 3 | 25 |  | 
59 | LMVLFQYGVALHELE [Peptide 7] | 3 | 138 | 3 | 138
60 | 1458 (HFVSTLSATFPEGED) [Peptide 1458] | 3 | 47 |  | 
61 | 88 (ALVLVSLLTALAAGI) [Peptide 88] | 3 | 28 |  | 
62 | 760 (AEWVVRTILSLLTVR) [Peptide 760] | 3 | 38 |  | 
63 | 659 (GLLYVPQLATISATF) [Peptide 659] | 3 | 38 |  | 

Row | Substance | Resp Freq [1] [%] | Total SFC [2] [SFC] | Resp Freq [%] | Total SFC [SFC]
64 | 323 (MIEMLAMSDLSLMVK) [Peptide 323] | 3 | 38 |  | 
65 | 540 (VVYAFMSLFVVNVVV) [Peptide 540] | 3 | 25 |  | 
66 | LMLIWACDLIVAADN [Peptide 1224] | 10 | 97 | 10 | 97
67 | 1285 (PADASIVKLYYSELL) [Peptide 1285] | 3 | 53 |  | 
68 | 629 (VQFMPLVIAPQLLLC) [Peptide 629] | 3 | 37 |  | 
69 | 588 (HLFQVMAFVVMEPPT) [Peptide 588] | 3 | 52 |  | 
70 | 1141 (HAEYKQVTVLFADVV) [Peptide 1141] | 3 | 38 |  | 
71 | SLHMFFHRLGPVLAR [Peptide 329] | 7 | 167 | 7 | 167
72 | 841 (PQFLIMPKLIPALIA) [Peptide 841] | 3 | 48 |  | 
73 | 691 (LANPGIVSIPLAFIL) [Peptide 691] | 3 | 23 |  | 
74 | ETTRNLIALGTLALI [Peptide 829] | 3 | 93 | 3 | 93
75 | LGVAALLFGFPIFFD [Peptide 391] | 3 | 77 | 3 | 77
76 | GSMLWVAALIGEEIF [Peptide 587] | 7 | 68 | 7 | 68
77 | 1196 (MVWRAAAAIELGICD) [Peptide 1196] | 3 | 35 |  | 
78 | 865 (TPLFMAHYAPFGLLT) [Peptide 865] | 3 | 25 |  | 
79 | 1244 (LIFDGVFDRFPTLRI) [Peptide 1244] | 3 | 35 |  | 
80 | 945 (ALIHVLWINAGLSCD) [Peptide 945] | 3 | 23 |  | 
81 | PKLKQFMSDVVWIEH [Peptide 775] | 7 | 70 | 7 | 70
82 | 1350 (LFFLFPLYAMADFST) [Peptide 1350] | 3 | 30 |  | 
